Data as given in publication PMC11992225, “Antibacterial compounds against non-growing and intracellular bacteria” (npj Antimicrobials and Resistance, 2025).
≈ marks a conversion by molar mass, not a printed value. Where “and” joins values, the source holds several entries; their conditions need not be identical. Equal values may be shown once. Read-outs that look alike come from different tables or passages of the source.

Columns and labels:
E. coli CFT073 (UPEC) = test: MIC, standard microdilution assay, growing UPEC; format: cell-based, Escherichia coli; details: Escherichia coli, E. coli
In short: (§1)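 Medium: CA-MHB + 40 mM HEPES, pH 7.4 (UPEC, P. aeruginosa, S. aureus); LPM + 30 mM MES, pH 5.5 (UPEC, extra condition); TSB (S. flexneri). Microdilution format, n = 3.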

S. aureus DSM2569 = test: MIC, standard microdilution assay, growing S. aureus; format: cell-based, Staphylococcus aureus; details: Staphylococcus aureus, DSM2569; S. aureus; CA-MHB pH 7.4; read-out: MIC (μM) CA-MHB
In short: as §1

non-growing UPEC CFT073 = test: Dose-dependent killing analysis (CFU spot-plating) of stationary-phase UPEC; format: cell-based, Escherichia coli
In short: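 Killing assessed by CFU counts: overnight 37 °C LB agar spot plates (10 μl drops of 10-fold PBS dilutions) scored at the lowest dilution with distinct colonies. Samples were compound-treated non-growing UPEC CFT073, 200 μl per well. Performed as three biological replicates.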

[1] = system: intracellular S. flexneri 5a M90T in TC7 cells; test: microbe, parasite or virus in culture; format: cell-based, Shigella flexneri; details: for IC50: Shigella flexneri, TC7, 14 h
[2] = pH 7.4, CA-MHB, read-out: MIC (μM) CA-MHB
[3] = E. coli in 1:4 CA-MHB (pH 7.4), drug concentration 0.25
[4] = E. coli in 1:4 CA-MHB (pH 7.4), drug concentration 0.25, before treatment 8.977
[5] = E. coli in 1:4 CA-MHB (pH 7.4), drug concentration 0.5
[6] = E. coli in 1:4 CA-MHB (pH 7.4), drug concentration 0.5, before treatment 8.977
[7] = E. coli in 1:4 CA-MHB (pH 7.4), drug concentration 1
[8] = E. coli in 1:4 CA-MHB (pH 7.4), drug concentration 1, before treatment 8.977
[9] = E. coli in 1:4 CA-MHB (pH 7.4), drug concentration 2.5
[10] = E. coli in 1:4 CA-MHB (pH 7.4), drug concentration 2.5, before treatment 8.977
[11] = E. coli in 1:4 CA-MHB (pH 7.4), drug concentration 5
[12] = E. coli in 1:4 CA-MHB (pH 7.4), drug concentration 5, before treatment 8.977
[13] = E. coli in 1:4 CA-MHB (pH 7.4), drug concentration 10
[14] = E. coli in 1:4 CA-MHB (pH 7.4), drug concentration 10, before treatment 8.977
[15] = TC7 cells infected with GFP-expressing S. flexneri, 14 h treatment

| SMILES | MIC (E. coli CFT073 (UPEC); [2]) | MIC (S. aureus DSM2569) | killing, average Δlog10(CFU/ml) (non-growing UPEC CFT073; [3]) | log10(CFU/ml) of treated nongrowing bacteria (single replicates) (non-growing UPEC CFT073; [4]) | killing, average Δlog10(CFU/ml) (non-growing UPEC CFT073; [5]) | log10(CFU/ml) of treated nongrowing bacteria (single replicates) (non-growing UPEC CFT073; [6]) | killing, average Δlog10(CFU/ml) (non-growing UPEC CFT073; [7]) | log10(CFU/ml) of treated nongrowing bacteria (single replicates) (non-growing UPEC CFT073; [8]) | killing, average Δlog10(CFU/ml) (non-growing UPEC CFT073; [9]) | log10(CFU/ml) of treated nongrowing bacteria (single replicates) (non-growing UPEC CFT073; [10]) | killing, average Δlog10(CFU/ml) (non-growing UPEC CFT073; [11]) | log10(CFU/ml) of treated nongrowing bacteria (single replicates) (non-growing UPEC CFT073; [12]) | killing, average Δlog10(CFU/ml) (non-growing UPEC CFT073; [13]) | log10(CFU/ml) of treated nongrowing bacteria (single replicates) (non-growing UPEC CFT073; [14]) | IC50 [1] | Fluorescence intensity (RFU), Mean, 2 x MIC [1, 15] | Fluorescence intensity (RFU), Mean, 4 x MIC [1, 15] | Fluorescence intensity (RFU), Mean, 8 x MIC [1, 15] | Fluorescence intensity (RFU), Mean, 16 x MIC [1, 15] | Fluorescence intensity (RFU), Mean, 32 x MIC [1, 15] | also measured |
| --- | --- | --- | --- | --- | --- | --- | --- | --- | --- | --- | --- | --- | --- | --- | --- | --- | --- | --- | --- | --- | --- |
| C[C@@H]1CN(c2c(F)c(N)c3c(=O)c(C(=O)O)cn(C4CC4)c3c2F)C[C@H](C)N1 [Sparfloxacin] | 0.025 µM (≈ 0.00981 µg/mL) | 0.25 µM (≈ 0.0981 µg/mL) | 0.241 log10(CFU/ml) | 8.954 log10(CFU/ml) and 8.778 log10(CFU/ml) and 8.477 log10(CFU/ml) | 0.055 log10(CFU/ml) | 9.114 log10(CFU/ml) and 8.699 log10(CFU/ml) and 8.954 log10(CFU/ml) | 0.246 log10(CFU/ml) | 9.114 log10(CFU/ml) and 8.301 log10(CFU/ml) and 8.778 log10(CFU/ml) | 0.077 log10(CFU/ml) | 9.380 log10(CFU/ml) and 8.477 log10(CFU/ml) and 8.845 log10(CFU/ml) | 0.562 log10(CFU/ml) | 8.602 log10(CFU/ml) and 8.342 log10(CFU/ml) and 8.301 log10(CFU/ml) | 1.084 log10(CFU/ml) | 8.301 log10(CFU/ml) and 7.602 log10(CFU/ml) and 7.778 log10(CFU/ml) | 0.012 µM | 2726.47 RFU | 2375.69 RFU | 1916.33 RFU | 1615.39 RFU | 1554.53 RFU | MIC:IC50 ratio ([1]; S. flexneri MIC in TSB versus intracellular IC50): > 2; Fluorescence intensity (RFU), Mean, 0.25 x MIC ([1]; TC7 cells infected with GFP-expressing S. flexneri, 14 h treatment, 0.25 x MIC): 5576.79 RFU; Fluorescence intensity (RFU), Mean, 0.5 x MIC ([1]; TC7 cells infected with GFP-expressing S. flexneri, 14 h treatment, 0.5 x MIC): 4270.29 RFU; Fluorescence intensity (RFU), Mean, MIC [1, 15]: 2934.67 RFU |
| NC1CCN(c2nc3c(cc2F)c(=O)c(C(=O)O)cn3-c2ccc(F)cc2F)C1 (stereo not shown) [Tosufloxacin] | 0.05 µM (≈ 0.0202 µg/mL) | 0.25 µM (≈ 0.101 µg/mL) | 0.576 log10(CFU/ml) | 8.477 log10(CFU/ml) and 8.279 log10(CFU/ml) and 8.447 log10(CFU/ml) | 0.736 log10(CFU/ml) | 8.602 log10(CFU/ml) and 8.041 log10(CFU/ml) and 8.079 log10(CFU/ml) | 1.185 log10(CFU/ml) | 8.301 log10(CFU/ml) and 7.845 log10(CFU/ml) and 7.230 log10(CFU/ml) | 2.064 log10(CFU/ml) | 7.041 log10(CFU/ml) and 6.699 log10(CFU/ml) and 7.000 log10(CFU/ml) | 2.460 log10(CFU/ml) | 6.845 log10(CFU/ml) and 6.230 log10(CFU/ml) and 6.477 log10(CFU/ml) | 2.856 log10(CFU/ml) | 6.778 log10(CFU/ml) and 5.380 log10(CFU/ml) and 6.204 log10(CFU/ml) | 0.025 µM | 4963.31 RFU | 3475.06 RFU | 3341.83 RFU | 2905.56 RFU | 2463.67 RFU | MIC (E. coli CFT073 (UPEC); LPM pH 5.5, read-out: MIC): 0.125 µM (≈ 0.0505 µg/mL); killing, average Δlog10(CFU/ml) (non-growing UPEC CFT073; E. coli in LPM (pH 5.5), drug concentration 0.25): -0.097 log10(CFU/ml); log10(CFU/ml) of treated nongrowing bacteria (single replicates) (non-growing UPEC CFT073; E. coli in LPM (pH 5.5), drug concentration 0.25, before treatment 7.350): 7.342 log10(CFU/ml) and 7.000 log10(CFU/ml) and 8.000 log10(CFU/ml); killing, average Δlog10(CFU/ml) (non-growing UPEC CFT073; E. coli in LPM (pH 5.5), drug concentration 0.5): 0.356 log10(CFU/ml); log10(CFU/ml) of treated nongrowing bacteria (single replicates) (non-growing UPEC CFT073; E. coli in LPM (pH 5.5), drug concentration 0.5, before treatment 7.350): 7.079 log10(CFU/ml) and 6.000 log10(CFU/ml) and 7.903 log10(CFU/ml); killing, average Δlog10(CFU/ml) (non-growing UPEC CFT073; E. coli in LPM (pH 5.5), drug concentration 1): 0.195 log10(CFU/ml); log10(CFU/ml) of treated nongrowing bacteria (single replicates) (non-growing UPEC CFT073; E. coli in LPM (pH 5.5), drug concentration 1, before treatment 7.350): 7.279 log10(CFU/ml) and 6.342 log10(CFU/ml) and 7.845 log10(CFU/ml); killing, average Δlog10(CFU/ml) (non-growing UPEC CFT073; E. coli in LPM (pH 5.5), drug concentration 2.5): 0.183 log10(CFU/ml); log10(CFU/ml) of treated nongrowing bacteria (single replicates) (non-growing UPEC CFT073; E. coli in LPM (pH 5.5), drug concentration 2.5, before treatment 7.350): 7.079 log10(CFU/ml) and 6.519 log10(CFU/ml) and 7.903 log10(CFU/ml); killing, average Δlog10(CFU/ml) (non-growing UPEC CFT073; E. coli in LPM (pH 5.5), drug concentration 5): 0.243 log10(CFU/ml); log10(CFU/ml) of treated nongrowing bacteria (single replicates) (non-growing UPEC CFT073; E. coli in LPM (pH 5.5), drug concentration 5, before treatment 7.350): 7.146 log10(CFU/ml) and 6.699 log10(CFU/ml) and 7.477 log10(CFU/ml); killing, average Δlog10(CFU/ml) (non-growing UPEC CFT073; E. coli in LPM (pH 5.5), drug concentration 10): 0.735 log10(CFU/ml); log10(CFU/ml) of treated nongrowing bacteria (single replicates) (non-growing UPEC CFT073; E. coli in LPM (pH 5.5), drug concentration 10, before treatment 7.350): 6.591 log10(CFU/ml) and 6.255 log10(CFU/ml) and 7.000 log10(CFU/ml); Fluorescence intensity (RFU), Mean, MIC [1, 15]: 6769 RFU |
